Four molecules from paper PMC12669040, “Tumour-specific STING agonist synthesis via a two-component prodrug system” (Nature Chemistry, 2025) can be followed below.

Series [1] is described as follows: Competition assay: N1–E4 dimerization in the presence of competitors C1–6 (HPLC). It counts as physicochemical. Conditions: equimolar E4, competitor and N1, 50 μM each.
The nature of series [2]: Colorimetric alkylation rate constant assay with thiol N1. The format is physicochemical.
Series [3] can be described thus: Colorimetric alkylation rate constant assay with TNB^2− as non-specific thiol. Also noted: second-order: unit not given here. It counts as physicochemical. As to conditions: [B]0 = 250, Replicates 1-3.
The subject of a further series is THP-1 Lucia ISG cells. The series is described as follows: β-Glucuronidase-specific STING activation, cytokine secretion assays. The format is cell-based, human. Conditions: 25 μM each, with β-glucuronidase 250 units ml^−1, 24 h.
In a further series the test system is MC38 tumours. Conditions: for Tumor Size: individual mice, * = excluded once a death was recorded in the group.
The next series addresses E. coli β-glucuronidase (Escherichia coli, UniProt P05804). Conditions: pH 6.8.
A further series deals with CT26mβGUS tumours. The series is described as follows: CT26mβGUS syngeneic mouse tumour model. As to conditions: single component alone.
Series [4] is described as follows: Stability test in human plasma. The format is in vitro ADME. As to conditions: 48 h, 37 °C. On the procedure:
Extended Data Fig. 6 Stability test of β-GlcA-N1 (1 mM) in human plasma. At the indicated time point, an 80 µL aliquot was loaded onto an Agilent Bond Elut solid phase extraction column (C18, 3 mL bed volume). The collected eluent was lyophilized, redissolved in a 50% (v/v) acetonitrile in water (0.1% v/v formic acid), and analyzed by LC-MS. TEXT PRINTED IN THE PICTURE: β-GlcA-N1: integration value: 91206 (t = 0 hr, human plasma); integration value: 84431 (t = 48 hr, 37 °C, human plasma) | no label printed: exact mass: 502.06 | no label printed: exact mass: 309.02 DOUBTS OF THE COPYIST ABOUT THIS PICTURE: The name β-GlcA-N1 is printed only at the peak in the upper chromatogram. The lower chromatogram's integration value (84431) is assigned to it as the same peak. / The two drawn structures have no printed label. Their exact masses are given with an empty substance label.

For another series, the target named is T1, human β-glucuronidase (Homo sapiens, UniProt P08236).
T1 construct: purchased AcroBiosystems BEB-H52H3
T1 sequence (P08236 23-651): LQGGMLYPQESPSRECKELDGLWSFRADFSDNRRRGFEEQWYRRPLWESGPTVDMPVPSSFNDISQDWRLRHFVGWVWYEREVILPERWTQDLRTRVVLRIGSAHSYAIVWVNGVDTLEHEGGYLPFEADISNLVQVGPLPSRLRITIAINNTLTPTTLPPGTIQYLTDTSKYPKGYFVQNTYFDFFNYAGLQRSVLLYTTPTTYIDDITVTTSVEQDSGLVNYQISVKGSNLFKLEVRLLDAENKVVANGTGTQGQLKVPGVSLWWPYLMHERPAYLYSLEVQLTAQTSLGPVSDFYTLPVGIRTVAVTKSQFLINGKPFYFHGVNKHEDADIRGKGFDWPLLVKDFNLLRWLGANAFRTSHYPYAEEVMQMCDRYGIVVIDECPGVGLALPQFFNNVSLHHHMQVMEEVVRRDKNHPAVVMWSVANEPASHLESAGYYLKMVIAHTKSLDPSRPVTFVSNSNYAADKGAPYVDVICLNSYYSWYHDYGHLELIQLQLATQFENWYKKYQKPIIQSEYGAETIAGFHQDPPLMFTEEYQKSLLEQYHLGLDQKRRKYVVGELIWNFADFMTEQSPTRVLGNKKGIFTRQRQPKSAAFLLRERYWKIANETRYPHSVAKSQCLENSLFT
The series is described as follows: Michaelis–Menten kinetics of β-GlcA-N1 cleavage. The format is biochemical. As to conditions: for dilution-corrected deltaN1: replicates 1 and 2. As for the experimental part: Human β-glucuronidase (AcroBiosystems BEB-H52H3) was reconstituted in deionized water to a concentration of 1 mg ml^−1. The enzyme stock solution was further diluted in assay buffer (0.2 M acetate pH 4.5) to 10 μg ml^−1 (134 nM). β-GlcA-N1 (50 mM DMSO stock) was twofold serially diluted in assay buffer from 5 to 0.078 mM. The enzyme solution and diluted β-GlcA-N1 were incubated in a transparent 96-well plate and incubated at 37 °C until thermo equilibrium was reached. Then, 100 µl of β-GlcA-N1 at various concentrations was mixed with 100 µl of β-glucuronidase using a multichannel pipette, resulting in the following initial condition: [β-GlcA-N1] = 2.5, 1.25, 0.62, 0.31, 0.16, 0.08 and 0.04 mM; [β-glucuronidase] = 67 nM; 5% DMSO (v/v). The reactions were incubated at 37 °C. At 30-min and 60-min timepoints, a 50-µl portion was withdrawn from each reaction mixture and mixed with 50 µl of quenching buffer (1 M sodium carbonate, 1 mM TCEP). The concentration of liberated N1 was determined by comparing the absorbance of each quenched reaction at 410 nm to a calibration curve of purified N1. Reaction velocities were calculated from the slopes of [N1] versus time plots. The velocity versus [β-GlcA-N1] plot was then fitted with the standard Michaelis–Menten kinetic model (GraphPad Prism).

Series [5] deals with the molecule itself. In words: crystal structure; STING LBD (247 µM) with compound D5 (2.2 mM), sitting drops, 20 °C; 2.31 Å.

Values joined by “and” are separate entries in the source; they are usually repeats but may differ in a detail not shown here. Identical values can stand only once. Like-named read-outs stand apart in the source and are kept apart here.

Chain of E. coli β-glucuronidase (P05804 whole entry): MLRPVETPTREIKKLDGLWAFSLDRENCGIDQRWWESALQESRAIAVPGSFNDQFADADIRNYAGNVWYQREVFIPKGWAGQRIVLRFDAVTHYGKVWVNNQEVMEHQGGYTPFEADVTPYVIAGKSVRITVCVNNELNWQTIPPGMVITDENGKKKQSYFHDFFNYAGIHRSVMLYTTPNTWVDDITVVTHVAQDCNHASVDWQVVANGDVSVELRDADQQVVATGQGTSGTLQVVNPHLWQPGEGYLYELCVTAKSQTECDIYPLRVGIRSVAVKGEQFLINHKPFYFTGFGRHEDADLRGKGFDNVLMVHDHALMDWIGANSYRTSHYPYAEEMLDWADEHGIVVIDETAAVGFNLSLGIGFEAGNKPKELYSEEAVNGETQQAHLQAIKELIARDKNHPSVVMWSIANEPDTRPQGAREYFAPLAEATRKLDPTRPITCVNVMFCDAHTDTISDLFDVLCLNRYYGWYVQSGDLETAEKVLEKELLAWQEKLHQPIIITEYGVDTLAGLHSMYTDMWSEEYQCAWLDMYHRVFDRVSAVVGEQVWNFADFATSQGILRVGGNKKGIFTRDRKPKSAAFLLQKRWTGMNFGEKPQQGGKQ
Method for THP-1 Lucia ISG cells: THP-1 Lucia ISG cells were maintained as described above. On the day of the experiment, cells were pelleted (150g, 10 min) and resuspended in the growth medium (40% conditioned) at a density of 1 × 10^6 cells ml^−1. […] The supernatants were collected, aliquoted and frozen at −20 °C for future analysis. […] Data were analysed by two-tailed Welch’s t-test (GraphPad Prism).

With `O=C(CCl)Nc1cc(C(F)(F)F)cc(C(F)(F)F)c1` [Compound C1], in series [1], the “reduction of the amount of N1–E4 dimer by the competitor” value is given as 35%. For the same molecule, the second-order in series [2] (Replicate 1, time 576 sec, second-order plot value) is on record as 0.007537; in series [2] (Replicate 1, time 606 sec, second-order plot value) it was 0.007697; in [2] (Replicate 2, time 576 sec, second-order plot value), 0.007533; in [2] (Replicate 2, time 606 sec, second-order plot value) it was 0.00792; in [2] (Replicate 3, time 576 sec, second-order plot value), 0.007357; in series [2] (Replicate 3, time 606 sec, second-order plot value), 0.007639. The second-order in series [2] (time 0 sec, replicates 1-3) was 0.001153 and 0.001059 and 0.00116; in [2] (time 30 sec, replicates 1-3), 0.001608 and 0.001493 and 0.001543; in series [2] (time 60 sec, replicates 1-3) it was 0.001966 and 0.001867 and 0.001909; in series [2] (time 91 sec, replicates 1-3), 0.002342 and 0.002215 and 0.002258; in series [2] (time 121 sec, replicates 1-3), 0.002679 and 0.002554 and 0.002612; in [2] (time 151 sec, replicates 1-3), 0.002904 and 0.002968. Further, the second-order is 0.003712 and 0.003583 and 0.003667 in series [2] (time 212 sec, replicates 1-3); 0.004057 and 0.003913 and 0.004 in series [2] (time 242 sec, replicates 1-3); 0.00439 and 0.004239 and 0.004347 in series [2] (time 273 sec, replicates 1-3); 0.004715 and 0.004571 and 0.004691 in series [2] (time 303 sec, replicates 1-3); 0.005043 and 0.004886 and 0.00503 in series [2] (time 333 sec, replicates 1-3); 0.005369 and 0.005207 and 0.005358 in series [2] (time 364 sec, replicates 1-3). Besides, the second-order in [2] (time 394 sec, replicates 1-3) was 0.005645 and 0.005521 and 0.005712; in [2] (time 424 sec, replicates 1-3), 0.005918 and 0.005838 and 0.006051; in series [2] (time 454 sec, replicates 1-3), 0.006191 and 0.006157 and 0.006365; in series [2] (time 485 sec, replicates 1-3), 0.006532 and 0.006449 and 0.006705; in series [2] (time 515 sec, replicates 1-3) it was 0.006798 and 0.006747 and 0.007019; in [2] (time 545 sec, replicates 1-3), 0.007139 and 0.00704 and 0.007306. In addition, the second-order in [3] (Time 2891 sec) was 0.0005428 and 0.0004879 and 0.0005765; in [3] (Time 3071 sec), 0.0005659 and 0.0004944 and 0.0005968; in series [3] (Time 3252 sec), 0.0005928 and 0.000525 and 0.0006178; in series [3] (Time 3433 sec), 0.0006132 and 0.0005166 and 0.0006465; in [3] (Time 3613 sec) it was 0.0006269 and 0.0005419 and 0.0006634; in series [3] (Time 3794 sec), 0.0006518 and 0.0005802 and 0.0006849. Moreover, the second-order is 0.0006575 and 0.0005747 and 0.00069 in [3] (Time 3974 sec); 0.0006878 and 0.0006116 and 0.0007283 in series [3] (Time 4155 sec); 0.0007043 and 0.0006446 and 0.000736 in series [3] (Time 4336 sec); 0.0007158 and 0.0006546 and 0.0007684 in series [3] (Time 4516 sec); 0.0007519 and 0.0006931 and 0.0007736 in series [3] (Time 4697 sec); 0.0007648 and 0.000697 and 0.0008077 in series [3] (Time 4878 sec). The second-order in [3] (Time 5058 sec) is 0.000772 and 0.0007238 and 0.0008222; in series [3] (Time 5239 sec), 0.0008041 and 0.000747 and 0.0008434; in series [3] (Time 5419 sec), 0.0008239 and 0.0007489 and 0.0008675; in series [3] (Time 5600 sec) it was 0.0008471 and 0.0007554 and 0.0008837; in series [3] (Time 5781 sec), 0.0008692 and 0.0007775 and 0.0009026; in series [3] (Time 5961 sec) it was 0.0008692 and 0.000805 and 0.0009333.

For `CCSc1cc2cc(C(=O)CCC(=O)O)sc2cc1OC` [Compound E4-ctrl], the “secretion of cytokines downstream of STING (interferon-β, CXCL-10, IL-6)” value with THP-1 Lucia ISG cells is listed as “diminished the cytokine inductions”.

Turning to `COc1cc2sc(C(=O)CCC(=O)O)cc2cc1SCO[C@@H]1O[C@H](C(=O)O)[C@@H](O)[C@H](O)[C@H]1O` [β-GlcA-N1], the “Tumor Size” value in the series with MC38 tumours (day 23) was 113* mm^3 and 189.9* mm^3; with MC38 tumours (day 25), 125.8124* mm^3 and 301.5* mm^3; in the series on MC38 tumours (day 30), 445.0408* mm^3 and 632.5* mm^3; in the series on MC38 tumours (day 33), 1167* mm^3 and 1562* mm^3. For the same molecule, the “Survival: Days” value with MC38 tumours (mouse, in vivo) is 17 days and 33 days and 21 days. In addition, the “Survival: death event (1 denotes a death event)” value in the series with MC38 tumours (mouse, in vivo) is reported as 1. Further, the “stability in phosphate buffer without added enzyme” value on E. coli β-glucuronidase was “remained stable”. Besides, the body weight entry in the series on CT26mβGUS tumours is “no significant losses were observed”. The “fraction remaining intact in human plasma” value in [4] is “more than 90%”. The kcat on human β-glucuronidase (Vmax / enzyme (6.71141e-8 M)) is 0.4762. Moreover, the “dilution-corrected deltaN1” value at human β-glucuronidase (substrate conc. 0.0390625 mM) was 4.272e-06 mM/s and 3.586e-06 mM/s; at human β-glucuronidase (substrate conc. 0.078125 mM), 6.962e-06 mM/s and 7.225e-06 mM/s; at human β-glucuronidase (substrate conc. 0.15625 mM), 1.1761e-05 mM/s and 1.16e-05 mM/s; at human β-glucuronidase (substrate conc. 0.3125 mM) it was 1.598e-05 mM/s and 1.529e-05 mM/s; at human β-glucuronidase (substrate conc. 0.625 mM), 2.231e-05 mM/s and 1.587e-05 mM/s; on human β-glucuronidase (substrate conc. 1.25 mM), 2.547e-05 mM/s and 2.51e-05 mM/s. Moreover, the “dilution-corrected deltaN1” value at human β-glucuronidase (substrate conc. 2.5 mM) is 3.022e-05 mM/s and 2.88e-05 mM/s.

B1: R232-STING 138-379 (ligand-binding domain of human STING) (domain or fragment, UniProt Q86WV6 138-379, looked up)
chain: GLAPAEISAVCEKGNFNVAHGLAWSYYIGYLRLILPELQARIRTYNQHYNNLLRGAVSQRLYILLPLDCGVPDNLSMADPNIRFLDKLPQQTGDHAGIKDRVYSNSIYELLENGQRAGTCVLEYATPLQTLFAMSQYSQAGFSREDRLEQAKLFCRTLEDILADAPESQNNCRLIAYQEPADDSSFSLSQEVLRHLRQEEKEEVTVGSLKTSAVPSTSTMSQEPELLISGMEKPLPLRTDFS
notes: chains A and B form the dimer; also called STING LBD; hSTING LBD; source: E. coli BL21(DE3), purified (Ni-NTA, TEV cleavage, reverse Ni-NTA, gel filtration)
As to B1, in [5], the binding result is “binds”.
